According to paper PMC8119466, “A screen of FDA-approved drugs identifies inhibitors of protein tyrosine phosphatase 4A3 (PTP4A3 or PRL-3)” (Scientific Reports, 2021):
Where a name gives a salt, the structure may show the parent alone. Read-outs that look alike come from different tables or passages of the source.

Assays:
Format in all cases: biochemical
[1] = biological target: T1, recombinant PRL-2 (Homo sapiens, UniProt Q12974); test: In vitro phosphatase assay (DiFMUP hydrolysis), PRL-2;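 further: PRL-2 activity read as DiFMUP hydrolysis after 20 min at room temperature with drug, enzyme first pre-reduced at 4 °C for 20 min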
T1 construct: 6xHis (N, cleaved yes); made in house; host or cells: E. coli One Shot BL21 Star
T1 sequence (Q12974 1-167): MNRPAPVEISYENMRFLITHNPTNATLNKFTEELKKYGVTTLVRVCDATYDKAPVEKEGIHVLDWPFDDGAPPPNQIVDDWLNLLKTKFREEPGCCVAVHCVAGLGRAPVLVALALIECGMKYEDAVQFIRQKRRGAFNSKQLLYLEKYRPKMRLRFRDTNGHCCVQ

[2] = biological target: T2, recombinant PRL-3 (Homo sapiens, UniProt O75365); test: In vitro phosphatase assay (DiFMUP hydrolysis), PRL-3; further: test concentration or dose not given here
T2 construct: 6xHis (N, cleaved yes); made in house; host or cells: E. coli One Shot BL21 Star

[3] = biological target: T3, recombinant PRL-1 (Homo sapiens, UniProt Q93096); test: In vitro phosphatase assay (DiFMUP hydrolysis), PRL-1; further: test concentration or dose not given here
T3 construct: 6xHis (N, cleaved yes); made in house; host or cells: E. coli One Shot BL21 Star
T3 sequence (Q93096 1-173): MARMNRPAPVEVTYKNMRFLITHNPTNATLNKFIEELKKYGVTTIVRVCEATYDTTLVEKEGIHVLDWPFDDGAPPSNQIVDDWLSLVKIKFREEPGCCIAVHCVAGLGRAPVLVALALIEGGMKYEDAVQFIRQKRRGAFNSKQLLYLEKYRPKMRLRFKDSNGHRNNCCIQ

[4] = FDA-approved drug screen, compared to DMSO

T2 sequence (O75365 whole entry): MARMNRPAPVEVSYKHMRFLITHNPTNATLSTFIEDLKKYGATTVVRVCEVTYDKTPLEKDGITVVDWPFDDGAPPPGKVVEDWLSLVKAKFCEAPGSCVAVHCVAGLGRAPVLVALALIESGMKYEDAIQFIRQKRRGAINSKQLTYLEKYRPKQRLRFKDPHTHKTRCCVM

CC(=O)Nc1nnc(S(N)(=O)=O)s1 [Acetazolamide]
% Phosphatase Activity (compared to DMSO) PRL-2 [1, 4]: 97%
% Phosphatase Activity (compared to DMSO) PRL-3 [2, 4]: 88%
% Phosphatase Activity (compared to DMSO) PRL-1 [3, 4]: 91%

CC(=O)NO [Acetohydroxamic acid]
% Phosphatase Activity (compared to DMSO) PRL-2 [1, 4]: 111%
% Phosphatase Activity (compared to DMSO) PRL-3 [2, 4]: 75%
% Phosphatase Activity (compared to DMSO) PRL-1 [3, 4]: 91%

CC(=O)OCC[N+](C)(C)C [Acetylcholine Chloride]
% Phosphatase Activity (compared to DMSO) PRL-2 [1, 4]: 97%
% Phosphatase Activity (compared to DMSO) PRL-3 [2, 4]: 95%
% Phosphatase Activity (compared to DMSO) PRL-1 [3, 4]: 87%

CC(=O)N[C@@H](CS)C(=O)O [Acetylcysteine]
% Phosphatase Activity (compared to DMSO) PRL-2 [1, 4]: 99%
% Phosphatase Activity (compared to DMSO) PRL-3 [2, 4]: 70%
% Phosphatase Activity (compared to DMSO) PRL-1 [3, 4]: 89%

CC(=O)NC(CC(C)C)C(=O)O (stereo not drawn) [Acetylleucine]
% Phosphatase Activity (compared to DMSO) PRL-2 [1, 4]: 99%
% Phosphatase Activity (compared to DMSO) PRL-3 [2, 4]: 89%
% Phosphatase Activity (compared to DMSO) PRL-1 [3, 4]: 110%

Nc1nc2c(ncn2COCCO)c(=O)[nH]1 [Aciclovir]
% Phosphatase Activity (compared to DMSO) PRL-2 [1, 4]: 99%
% Phosphatase Activity (compared to DMSO) PRL-3 [2, 4]: 89%
% Phosphatase Activity (compared to DMSO) PRL-1 [3, 4]: 85%

Cc1cnc(C(=O)O)c[n+]1[O-] [Acipimox]
% Phosphatase Activity (compared to DMSO) PRL-2 [1, 4]: 102%
% Phosphatase Activity (compared to DMSO) PRL-3 [2, 4]: 95%
% Phosphatase Activity (compared to DMSO) PRL-1 [3, 4]: 97%

COc1cc(C)c(/C=C/C(C)=C/C=C/C(C)=C/C(=O)O)c(C)c1C [Acitretin]
% Phosphatase Activity (compared to DMSO) PRL-2 [1, 4]: 87%
% Phosphatase Activity (compared to DMSO) PRL-3 [2, 4]: 62%
% Phosphatase Activity (compared to DMSO) PRL-1 [3, 4]: 83%

O=C(O[C@H]1C[N+]2(CCCOc3ccccc3)CCC1CC2)C(O)(c1cccs1)c1cccs1 [Aclidinium Bromide]
% Phosphatase Activity (compared to DMSO) PRL-2 [1]: 117%
% Phosphatase Activity (compared to DMSO) PRL-3 [2]: 90%
% Phosphatase Activity (compared to DMSO) PRL-1 [3]: 106%

COc1ccc(-c2ccc3cc(C(=O)O)ccc3c2)cc1C12CC3CC(CC(C3)C1)C2 [Adapalene]
% Phosphatase Activity (compared to DMSO) PRL-2 [1, 4]: 141%
% Phosphatase Activity (compared to DMSO) PRL-3 [2, 4]: 68%
% Phosphatase Activity (compared to DMSO) PRL-1 [3, 4]: 183%

CC(C)(C)C(=O)OCOP(=O)(COCCn1cnc2c(N)ncnc21)OCOC(=O)C(C)(C)C [Adefovir Dipivoxil]
% Phosphatase Activity (compared to DMSO) PRL-2 [1, 4]: 88%
% Phosphatase Activity (compared to DMSO) PRL-3 [2, 4]: 74%
% Phosphatase Activity (compared to DMSO) PRL-1 [3, 4]: 92%

Nc1ncnc2c1ncn2[C@@H]1O[C@H](CO)[C@@H](O)[C@H]1O [Adenosine]
% Phosphatase Activity (compared to DMSO) PRL-2 [1, 4]: 93%
% Phosphatase Activity (compared to DMSO) PRL-3 [2, 4]: 87%
% Phosphatase Activity (compared to DMSO) PRL-1 [3, 4]: 100%

CNCC(=O)c1ccc(O)c(O)c1.Cl [Adrenalone HCl]
% Phosphatase Activity (compared to DMSO) PRL-2 [1, 4]: 91%
% Phosphatase Activity (compared to DMSO) PRL-3 [2, 4]: 72%
% Phosphatase Activity (compared to DMSO) PRL-1 [3, 4]: 91%

CN(C)C/C=C/C(=O)Nc1cc2c(Nc3ccc(F)c(Cl)c3)ncnc2cc1O[C@H]1CCOC1.O=C(O)/C=C\C(=O)O.O=C(O)/C=C\C(=O)O [Afatinib (BIBW2992) Dimaleate]
% Phosphatase Activity (compared to DMSO) PRL-2 [1, 4]: 94%
% Phosphatase Activity (compared to DMSO) PRL-3 [2, 4]: 101%
% Phosphatase Activity (compared to DMSO) PRL-1 [3, 4]: 97%

COc1ccc2cccc(CCNC(C)=O)c2c1 [Agomelatine]
% Phosphatase Activity (compared to DMSO) PRL-2 [1, 4]: 98%
% Phosphatase Activity (compared to DMSO) PRL-3 [2, 4]: 76%
% Phosphatase Activity (compared to DMSO) PRL-1 [3, 4]: 92%

CCC[S+]([O-])c1ccc2[nH]c(NC(=O)OC)nc2c1 (stereo not drawn) [Albendazole Oxide]
% Phosphatase Activity (compared to DMSO) PRL-2 [1, 4]: 100%
% Phosphatase Activity (compared to DMSO) PRL-3 [2, 4]: 95%
% Phosphatase Activity (compared to DMSO) PRL-1 [3, 4]: 93%

CCCSc1ccc2nc(NC(=O)OC)[nH]c2c1 [Albendazole]
% Phosphatase Activity (compared to DMSO) PRL-2 [1]: 88%
% Phosphatase Activity (compared to DMSO) PRL-3 [2]: 78%
% Phosphatase Activity (compared to DMSO) PRL-1 [3]: 102%

CN1CCC(=C2c3ccccc3CCn3c(C=O)cnc32)CC1 [Alcaftadine]
% Phosphatase Activity (compared to DMSO) PRL-2 [1, 4]: 89%
% Phosphatase Activity (compared to DMSO) PRL-3 [2, 4]: 85%
% Phosphatase Activity (compared to DMSO) PRL-1 [3, 4]: 98%

NCCCC(O)(P(=O)(O)O)P(=O)(O)O [Alendronate]
% Phosphatase Activity (compared to DMSO) PRL-2 [1]: 93%
% Phosphatase Activity (compared to DMSO) PRL-3 [2]: 79%
% Phosphatase Activity (compared to DMSO) PRL-1 [3]: 110%

C=C1/C(=C\C=C2/CCC[C@]3(C)[C@@H]([C@H](C)CCCC(C)C)CC[C@@H]23)C[C@@H](O)C[C@@H]1O [Alfacalcidol]
% Phosphatase Activity (compared to DMSO) PRL-2 [1, 4]: 82%
% Phosphatase Activity (compared to DMSO) PRL-3 [2, 4]: 75%
% Phosphatase Activity (compared to DMSO) PRL-1 [3, 4]: 99%

COc1cc2nc(N(C)CCCNC(=O)C3CCCO3)nc(N)c2cc1OC (stereo not drawn) [Alfuzosin HCl]
% Phosphatase Activity (compared to DMSO) PRL-2 [1, 4]: 536%
% Phosphatase Activity (compared to DMSO) PRL-3 [2, 4]: 290%
% Phosphatase Activity (compared to DMSO) PRL-1 [3, 4]: 590%

C=CCc1cc(OC)c(O)c(C(=O)NCCO)c1 [Alibendol]
% Phosphatase Activity (compared to DMSO) PRL-2 [1, 4]: 109%
% Phosphatase Activity (compared to DMSO) PRL-3 [2, 4]: 81%
% Phosphatase Activity (compared to DMSO) PRL-1 [3, 4]: 90%

COc1cc(Nc2ncc3c(n2)-c2ccc(Cl)cc2C(c2c(F)cccc2OC)=NC3)ccc1C(=O)O [Alisertib (MLN8237)]
% Phosphatase Activity (compared to DMSO) PRL-2 [1, 4]: 96%
% Phosphatase Activity (compared to DMSO) PRL-3 [2, 4]: 81%
% Phosphatase Activity (compared to DMSO) PRL-1 [3, 4]: 85%

COCCCOc1cc(C[C@@H](C[C@H](N)[C@@H](O)C[C@H](C(=O)NCC(C)(C)C(N)=O)C(C)C)C(C)C)ccc1OC [Aliskiren Hemifumarate]
% Phosphatase Activity (compared to DMSO) PRL-2 [1, 4]: 122%
% Phosphatase Activity (compared to DMSO) PRL-3 [2, 4]: 102%
% Phosphatase Activity (compared to DMSO) PRL-1 [3, 4]: 102%

Oc1ncnc2[nH]ncc12 [Allopurinol]
% Phosphatase Activity (compared to DMSO) PRL-2 [1, 4]: 97%
% Phosphatase Activity (compared to DMSO) PRL-3 [2, 4]: 77%
% Phosphatase Activity (compared to DMSO) PRL-1 [3, 4]: 104%

C=CCNC(N)=S [Allylthiourea]
% Phosphatase Activity (compared to DMSO) PRL-2 [1, 4]: 121%
% Phosphatase Activity (compared to DMSO) PRL-3 [2, 4]: 86%
% Phosphatase Activity (compared to DMSO) PRL-1 [3, 4]: 106%

CN(C)CCc1c[nH]c2ccc(CS(=O)(=O)N3CCCC3)cc12.O=C(O)CC(O)C(=O)O [Almotriptan Malate]
% Phosphatase Activity (compared to DMSO) PRL-2 [1, 4]: 114%
% Phosphatase Activity (compared to DMSO) PRL-3 [2, 4]: 68%
% Phosphatase Activity (compared to DMSO) PRL-1 [3, 4]: 97%

Cn1c(=O)cc(N2CCC[C@@H](N)C2)n(Cc2ccccc2C#N)c1=O [Alogliptin]
% Phosphatase Activity (compared to DMSO) PRL-2 [1, 4]: 123%
% Phosphatase Activity (compared to DMSO) PRL-3 [2, 4]: 96%
% Phosphatase Activity (compared to DMSO) PRL-1 [3, 4]: 112%

CCOC(=O)[C@H]1O[C@@H]1C(=O)N[C@@H](CC(C)C)C(=O)NCCC(C)C [Aloxistatin]
% Phosphatase Activity (compared to DMSO) PRL-2 [1, 4]: 78%
% Phosphatase Activity (compared to DMSO) PRL-3 [2, 4]: 86%
% Phosphatase Activity (compared to DMSO) PRL-1 [3, 4]: 87%

CCCCC[C@H](O)/C=C/[C@H]1[C@H](O)CC(=O)[C@@H]1CCCCCCC(=O)O [Alprostadil]
% Phosphatase Activity (compared to DMSO) PRL-2 [1, 4]: 113%
% Phosphatase Activity (compared to DMSO) PRL-3 [2, 4]: 98%
% Phosphatase Activity (compared to DMSO) PRL-1 [3, 4]: 117%

C=CC[C@]1(O)CC[C@H]2[C@@H]3CCC4=CC(=O)CCC4=C3C=C[C@@]21C [Altrenogest]
% Phosphatase Activity (compared to DMSO) PRL-2 [1, 4]: 178%
% Phosphatase Activity (compared to DMSO) PRL-3 [2, 4]: 156%
% Phosphatase Activity (compared to DMSO) PRL-1 [3, 4]: 192%

CN(C)c1nc(N(C)C)nc(N(C)C)n1 [Altretamine]
% Phosphatase Activity (compared to DMSO) PRL-2 [1, 4]: 89%
% Phosphatase Activity (compared to DMSO) PRL-3 [2, 4]: 71%
% Phosphatase Activity (compared to DMSO) PRL-1 [3, 4]: 89%

Cc1c(-c2ccnn2C)cc(C(=O)NCc2ccc(S(C)(=O)=O)cn2)c(=O)n1-c1cccc(C(F)(F)F)c1 [Alvelestat (AZD9668)]
% Phosphatase Activity (compared to DMSO) PRL-2 [1, 4]: 114%
% Phosphatase Activity (compared to DMSO) PRL-3 [2, 4]: 121%
% Phosphatase Activity (compared to DMSO) PRL-1 [3, 4]: 138%

CCN(CCCc1ccccc1)CCCc1ccccc1 [Alverine Citrate]
% Phosphatase Activity (compared to DMSO) PRL-2 [1, 4]: 107%
% Phosphatase Activity (compared to DMSO) PRL-3 [2, 4]: 95%
% Phosphatase Activity (compared to DMSO) PRL-1 [3, 4]: 97%

NC12CC3CC(CC(C3)C1)C2 [Amantadine HCl]
% Phosphatase Activity (compared to DMSO) PRL-2 [1, 4]: 127%
% Phosphatase Activity (compared to DMSO) PRL-3 [2, 4]: 88%
% Phosphatase Activity (compared to DMSO) PRL-1 [3, 4]: 117%

COC(c1ccccc1)(c1ccccc1)[C@H](Oc1nc(C)cc(C)n1)C(=O)O [Ambrisentan]
% Phosphatase Activity (compared to DMSO) PRL-2 [1, 4]: 99%
% Phosphatase Activity (compared to DMSO) PRL-3 [2, 4]: 78%
% Phosphatase Activity (compared to DMSO) PRL-1 [3, 4]: 94%
